Drawing on patent US12643882B2, “Inhibitors of human respiratory syncytial virus and metapneumovirus” (priority 2022, dated 2026), this text covers EC50 for 19 compounds.

The test system of assay [1] is RSV-A2-GFP virus. Nature of the assay: microbe, parasite or virus in culture. The assay is classed as cell-based, Human Respiratory Syncytial Virus. In a few lines: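 Assay-ready frozen Calu-1 cells at 20,000 cells/mL were infected with recombinant RSV-A2-GFP (MOI 1.2) in DMEM with 2% FBS. Cells were exposed to 10-point 3-fold compound dilutions for 96 h at 37° C. GFP-positive cells were counted by imaging, with same-well CellTiter-Glo for cytotoxicity, and IC50 and CC50 came from 4-parameter logistic fits.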

Assay [2] relates to hMPV-GFP virus. Nature of the assay: microbe, parasite or virus in culture. In kind it is cell-based, human metapneumovirus. In a few lines: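 VERO cells infected with GFP-expressing hMPV at MOI 1.25 were incubated 48 h at 37 °C with compound in 10-point 3-fold dilutions (typically 40,300–2 nM final). GFP-positive cells were counted by imaging. Same-well CellTiter-Glo gave cytotoxicity, and IC50/CC50 came from 4-parameter logistic fits.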

The mark [3] stands for this setting: Calu-1 cells infected with RSV-A2-GFP, 96 hrs, GFP-expressing cells counted, read-out: RSV EC50.
Where [4] appears, read: VERO cells infected with hMPV-GFP, 48 hrs, GFP-expressing cells counted, read-out: hMPV EC50.
The mark [5] stands for this setting: human respiratory syncytial virus, Calu-1, 96 h, read-out: RSV EC50, Calu-1 cells infected with RSV-A2-GFP, 96 hrs, GFP-expressing cells counted.
Setting [6] is: human metapneumovirus, Vero, 48 h, read-out: hMPV EC50, VERO cells infected with hMPV-GFP, 48 hrs, GFP-expressing cells counted.

Where two headings read alike, the source gives them in different places.

Regarding `Cc1nc(-c2ncccn2)sc1C(=O)N1C[C@@H]2[C@H](C1)[C@H]2Oc1cc(C(C)(C)N)cc(-c2ccc3c(c2)CCO3)n1` [Example 34, ((1R,5S,6s)-6-((4-(2-aminopropan-2-yl)-6-(2,3-dihydrobenzofuran-5-yl)pyridin-2-yl)oxy)-3-azabicyclo[3.1.0]hexan-3-yl)(4-methyl-2-(pyrimidin-2-yl)thiazol-5-yl)methanone], the concentration for a half-maximal effect (EC50) in assay [1] (setting [3]) is under 10 nM; in assay [2] (setting [4]) it was over 100 nM.

As for `Cc1cc(-c2cc(C(C)(C)N)cc(O[C@H]3[C@@H]4CN(C(=O)c5sc(-c6ncccn6)nc5C)C[C@@H]43)n2)ccc1F` [Example 35, ((1R,5S,6s)-6-((4-(2-aminopropan-2-yl)-6-(4-fluoro-3-methylphenyl)pyridin-2-yl)oxy)-3-azabicyclo[3.1.0]hexan-3-yl)(4-methyl-2-(pyrimidin-2-yl)thiazol-5-yl)methanone], the half-maximal effective concentration (EC50) was under 10 nM in assay [1] (setting [3]) and over 100 nM in assay [2] (setting [4]).

Consider `Cc1nc(-c2ncccn2)sc1C(=O)N1C[C@@H]2[C@H](C1)[C@H]2Oc1cc(C(C)(C)N)cc(-c2ccc(C#N)c(F)c2)n1` [Example 36, 4-(4-(2-aminopropan-2-yl)-6-(((1R,5S,6s)-3-(4-methyl-2-(pyrimidin-2-yl)thiazole-5-carbonyl)-3-azabicyclo[3.1.0]hexan-6-yl)oxy)pyridin-2-yl)-2-fluorobenzonitrile], for which the EC50 in assay [1] (setting [3]) was under 10 nM; in assay [2] (setting [4]) it was 10 to 100 nM.

Consider `Cc1ccc(-c2cc(C(C)(C)N)cc(O[C@H]3[C@@H]4CN(C(=O)c5sc(-c6ncccn6)nc5C)C[C@@H]43)n2)cc1F` [Example 37, ((1R,5S,6s)-6-((4-(2-aminopropan-2-yl)-6-(3-fluoro-4-methylphenyl)pyridin-2-yl)oxy)-3-azabicyclo[3.1.0]hexan-3-yl)(4-methyl-2-(pyrimidin-2-yl)thiazol-5-yl)methanone], for which the figures for the EC50 in assay [1] (setting [3]) and in assay [2] (setting [4]) were under 10 nM and 10 to 100 nM, respectively.

With `Cc1ccc(-c2cc(C(C)(C)N)cc(O[C@H]3[C@@H]4CN(C(=O)c5sc(-c6ncccn6)nc5C)C[C@@H]43)n2)c(F)c1` [Example 38, ((1R,5S,6s)-6-((4-(2-aminopropan-2-yl)-6-(2-fluoro-4-methylphenyl)pyridin-2-yl)oxy)-3-azabicyclo[3.1.0]hexan-3-yl)(4-methyl-2-(pyrimidin-2-yl)thiazol-5-yl)methanone], the half-maximal effective concentration (EC50) in assay [1] (setting [3]) is under 10 nM; in assay [2] (setting [4]), 10 to 100 nM.

`Cc1cc(F)ccc1-c1cc(C(C)(C)N)cc(O[C@H]2[C@@H]3CN(C(=O)c4sc(-c5ncccn5)nc4C)C[C@@H]32)n1` [Example 39, ((1R,5S,6s)-6-((4-(2-aminopropan-2-yl)-6-(4-fluoro-2-methylphenyl)pyridin-2-yl)oxy)-3-azabicyclo[3.1.0]hexan-3-yl)(4-methyl-2-(pyrimidin-2-yl)thiazol-5-yl)methanone]: the concentration for a half-maximal effect (EC50) in assay [1] (setting [3]) was under 10 nM; in assay [2] (setting [4]), 10 to 100 nM.

`Cc1cccc(-c2cc(C(C)(C)N)cc(O[C@H]3[C@@H]4CN(C(=O)c5sc(-c6ncccn6)nc5C)C[C@@H]43)n2)c1F` [Example 40, ((1R,5S,6s)-6-((4-(2-aminopropan-2-yl)-6-(2-fluoro-3-methylphenyl)pyridin-2-yl)oxy)-3-azabicyclo[3.1.0]hexan-3-yl)(4-methyl-2-(pyrimidin-2-yl)thiazol-5-yl)methanone]: the 50% effective concentration (EC50) in assay [1] (setting [3]) is under 10 nM; in assay [2] (setting [4]) it was over 100 nM.

On to `COc1cc(F)ccc1-c1cc(C(C)(C)N)cc(O[C@H]2[C@@H]3CN(C(=O)c4sc(-c5ncccn5)nc4C)C[C@@H]32)n1` [Example 41, ((1R,5S,6s)-6-((4-(2-aminopropan-2-yl)-6-(4-fluoro-2-methoxyphenyl)pyridin-2-yl)oxy)-3-azabicyclo[3.1.0]hexan-3-yl)(4-methyl-2-(pyrimidin-2-yl)thiazol-5-yl)methanone], for which the results for the EC50 in assay [1] (setting [3]) and in assay [2] (setting [4]) were under 10 nM and over 100 nM, respectively.

In the case of `Cc1nc(-c2ncccn2)sc1C(=O)N1C[C@@H]2[C@H](C1)[C@H]2Oc1cc(C(C)(C)N)cc(-c2ccc(F)c3ccccc23)n1` [Example 42, ((1R,5S,6s)-6-((4-(2-aminopropan-2-yl)-6-(4-fluoronaphthalen-1-yl)pyridin-2-yl)oxy)-3-azabicyclo[3.1.0]hexan-3-yl)(4-methyl-2-(pyrimidin-2-yl)thiazol-5-yl)methanone], the EC50 is under 10 nM in assay [1] (setting [3]) and 10 to 100 nM in assay [2] (setting [4]).

For `Cc1nc(-c2ncccn2)sc1C(=O)N1C[C@@H]2[C@H](C1)[C@H]2Oc1cc(C(C)(C)N)cc(-c2cc3ccccc3[nH]2)n1` [Example 43, ((1R,5S,6s)-6-((4-(2-aminopropan-2-yl)-6-(1H-indol-2-yl)pyridin-2-yl)oxy)-3-azabicyclo[3.1.0]hexan-3-yl)(4-methyl-2-(pyrimidin-2-yl)thiazol-5-yl)methanone], the results for the EC50 in assay [1] (setting [3]) and in assay [2] (setting [4]) were under 10 nM and over 100 nM, respectively.

Consider `Cc1nc(-c2ncccn2)sc1C(=O)N1C[C@@H]2[C@H](C1)[C@H]2Oc1cc(C(C)(C)N)cc(-c2cc3ccccc3n2C)n1` [Example 44, ((1R,5S,6s)-6-((4-(2-aminopropan-2-yl)-6-(1-methyl-1H-indol-2-yl)pyridin-2-yl)oxy)-3-azabicyclo[3.1.0]hexan-3-yl)(4-methyl-2-(pyrimidin-2-yl)thiazol-5-yl)methanone], for which the EC50 is under 10 nM in assay [1] (setting [3]) and 10 to 100 nM in assay [2] (setting [4]).

`Cc1nc(-c2ncccn2)sc1C(=O)N1C[C@@H]2[C@H](C1)[C@H]2Oc1cc(C(C)(C)N)cc(C2=CCCCC2)n1` [Example 45, ((1R,5S,6s)-6-((4-(2-aminopropan-2-yl)-6-(cyclohex-1-en-1-yl)pyridin-2-yl)oxy)-3-azabicyclo[3.1.0]hexan-3-yl)(4-methyl-2-(pyrimidin-2-yl)thiazol-5-yl)methanone]: the EC50 was under 10 nM in assay [1] (setting [3]) and over 100 nM in assay [2] (setting [4]).

`Cc1nc(-c2ncccn2)sc1C(=O)N1C[C@@H]2[C@H](C1)[C@H]2Oc1cc(C(C)(C)N)cc(C2=CCC3(CCC3)CC2)n1` [Example 48, ((1R,5S,6s)-6-((4-(2-aminopropan-2-yl)-6-(spiro[3.5]non-6-en-7-yl)pyridin-2-yl)oxy)-3-azabicyclo[3.1.0]hexan-3-yl)(4-methyl-2-(pyrimidin-2-yl)thiazol-5-yl)methanone]: the EC50 in assay [1] (setting [3]) was under 10 nM; in assay [2] (setting [4]), over 100 nM.

For `CC(C)(N)c1cc(O[C@H]2[C@@H]3CN(C(=O)c4sc(-c5ncccn5)nc4C(F)F)C[C@@H]32)nc(-c2ccc(F)cc2)c1` [Example 49, ((1R,5S,6s)-6-((4-(2-aminopropan-2-yl)-6-(4-fluorophenyl)pyridin-2-yl)oxy)-3-azabicyclo[3.1.0]hexan-3-yl)(4-(difluoromethyl)-2-(pyrimidin-2-yl)thiazol-5-yl)methanone], the concentration giving a half-maximal response (EC50) in assay [1] (setting [5]) is under 10 nM; in assay [2] (setting [6]) it was 10 to 100 nM.

Turning to `Cn1nc(-c2cccc(F)n2)cc1C(=O)N1C[C@@H]2[C@H](C1)[C@H]2Oc1cc(C(C)(C)N)cc(-c2ccc(F)cc2)n1` [Example 50, ((1R,5S,6s)-6-((4-(2-aminopropan-2-yl)-6-(4-fluorophenyl)pyridin-2-yl)oxy)-3-azabicyclo[3.1.0]hexan-3-yl)(3-(6-fluoropyridin-2-yl)-1-methyl-1H-pyrazol-5-yl)methanone], the EC50 is under 10 nM in assay [1] (setting [5]) and 10 to 100 nM in assay [2] (setting [6]).

Turning to `Cc1cccc(-c2cc(C(=O)N3C[C@@H]4[C@H](C3)[C@H]4Oc3cc(C(C)(C)N)cc(-c4ccc(F)cc4)n3)n(C)n2)n1` [Example 51, ((1R,5S,6s)-6-((4-(2-aminopropan-2-yl)-6-(4-fluorophenyl)pyridin-2-yl)oxy)-3-azabicyclo[3.1.0]hexan-3-yl)(1-methyl-3-(6-methylpyridin-2-yl)-1H-pyrazol-5-yl)methanone], the EC50 was under 10 nM in assay [1] (setting [3]) and over 100 nM in assay [2] (setting [4]).

Regarding `Cn1nc(-c2ncccn2)cc1C(=O)N1C[C@@H]2[C@H](C1)[C@H]2Oc1cc(C(C)(C)N)cc(-c2ccc(F)cc2)n1` [Example 52, ((1R,5S,6s)-6-((4-(2-aminopropan-2-yl)-6-(4-fluorophenyl)pyridin-2-yl)oxy)-3-azabicyclo[3.1.0]hexan-3-yl)(1-methyl-3-(pyrimidin-2-yl)-1H-pyrazol-5-yl)methanone], the EC50 is under 10 nM in assay [1] (setting [5]) and over 100 nM in assay [2] (setting [6]).

For `Cn1nc(-c2ncccn2)c(Cl)c1C(=O)N1C[C@@H]2[C@H](C1)[C@H]2Oc1cc(C(C)(C)N)cc(-c2ccc(F)cc2)n1` [Example 53, ((1R,5S,6s)-6-((4-(2-aminopropan-2-yl)-6-(4-fluorophenyl)pyridin-2-yl)oxy)-3-azabicyclo[3.1.0]hexan-3-yl)(4-chloro-1-methyl-3-(pyrimidin-2-yl)-1H-pyrazol-5-yl)methanone], the 50% effective concentration (EC50) was under 10 nM in assay [1] (setting [5]) and over 100 nM in assay [2] (setting [6]).

As for `Cn1nc(-c2ncccn2)c(F)c1C(=O)N1C[C@@H]2[C@H](C1)[C@H]2Oc1cc(C(C)(C)N)cc(-c2ccc(F)cc2)n1` [Example 54, ((1R,5S,6s)-6-((4-(2-aminopropan-2-yl)-6-(4-fluorophenyl)pyridin-2-yl)oxy)-3-azabicyclo[3.1.0]hexan-3-yl)(4-fluoro-1-methyl-3-(pyrimidin-2-yl)-1H-pyrazol-5-yl)methanone], the EC50 was under 10 nM in assay [1] (setting [5]) and over 100 nM in assay [2] (setting [6]).

A word on the EC50: it is the concentration needed to bring the measured effect to its halfway point.
